Measurements: patent US8772499B2, “TRPV3 modulators” (AbbVie Inc., priority 2011, dated 2014)

How the values were obtained:
TRPV3 = TRPV3 agonist, relatively weak and nonspecific across TRPs; cited from earlier work
[1] = In vitro rat microsomal stability assay; assay type: in vitro ADME, rat (Sprague-Dawley); settings: Sprague-Dawley, rat, microsomes, 0.5 h, 0.5 μM, pH 7.4
Procedure, shortened: (§1)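 Incubations ran at 37° C. in microsomal preparations of rat (Sprague-Dawley) or human liver, with NADPH present, including at time zero.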

[2] = tested on: chronic constriction injury (CCI) model of neuropathic pain; assay: In vivo chronic constriction injury (CCI) model of neuropathic pain, mechanical allodynia (von Frey); parameters: species or system CD1 mice; settings: Mus musculus, po, 1 h, 100 mg/kg oral dose, mechanical allodynia 1 hour after dosing, CCI mice, average of eight mice; vehicle 0%, control 100%; read-out: % EFFECT
Description: Test compounds were evaluated for analgesic effect in an in vivo chronic constriction injury (CCI) model of neuropathic pain. CD1 mice (Charles River) were used for these studies. Prior to testing (2-4 weeks) animals underwent a surgical procedure consisting of approximately 3 loose ligatures around the sciatic nerve. Following sterilization procedures, under isofluorane anesthetic, a 1.5 cm incision was made dorsal to the pelvis. The biceps femoris and gluteous superficialis (right side) were separated and the sciatic nerve exposed, isolated, and 2-4 loose ligatures (5-0 chromic gut) with less than 1 mm spacing were placed around it. Following hemostasis, the wound was sutured (layer of muscle closed with 5-0 nylon suture, and the wound closed with surgical staples) and coated with iodine. The mice were allowed to recover on a warming plate and were returned to their home cages (soft bedding) when able to walk on their own.
Two to four weeks after the surgery, test compound was administered orally (PO) in these mice, and mechanical allodynia was evaluated 1 hour after oral dosing where the threshold to response was assessed using calibrated von Frey monofilaments. The von Frey monofilaments were applied to the hind paw at increasing forces until the animal responded by lifting its paw. Normally, the force of the von Frey monofilament was innocuous and only in the altered state (allodynia or hyperalgesia) did the animals respond to this stimulation. […] At the end of the experiment, after behavioral testing, plasma (and in some instances brain tissue) was taken for exposure analysis.
Each test compound was evaluated in eight different mice. The data reported in Table 3 represent the average value of the approximate percent effect of each compound in relieving neuropathic pain in mice receiving 100 mg/kg oral dose of the test compound. The grams of force needed to elicit a withdrawal response from the injured mouse that was challenged with vehicle was assigned a 0% effect, while the grams of force needed to elicit a withdrawal response from the control was given a 100% effect.

[3] = In vitro human microsomal stability assay; assay type: in vitro ADME; settings: human, microsomes, 0.5 h, 0.5 μM, pH 7.4
Procedure, shortened: as §1

human TRPV3 = biological target: T1, human TRPV3 (Homo sapiens, UniProt Q8NET8); assay: In vitro antagonism of recombinant human TRPV3 activation (FLIPR Tetra calcium assay); assay type: cell-based; settings: HEK293 cells stably expressing human TRPV3; agonist 2-APB at 80 μM; actual measured value shown parenthetically; in most cases average of at least two runs; read-out: IC50
T1 construct: expressed in transfected cells
T1 sequence (Q8NET8 1-790): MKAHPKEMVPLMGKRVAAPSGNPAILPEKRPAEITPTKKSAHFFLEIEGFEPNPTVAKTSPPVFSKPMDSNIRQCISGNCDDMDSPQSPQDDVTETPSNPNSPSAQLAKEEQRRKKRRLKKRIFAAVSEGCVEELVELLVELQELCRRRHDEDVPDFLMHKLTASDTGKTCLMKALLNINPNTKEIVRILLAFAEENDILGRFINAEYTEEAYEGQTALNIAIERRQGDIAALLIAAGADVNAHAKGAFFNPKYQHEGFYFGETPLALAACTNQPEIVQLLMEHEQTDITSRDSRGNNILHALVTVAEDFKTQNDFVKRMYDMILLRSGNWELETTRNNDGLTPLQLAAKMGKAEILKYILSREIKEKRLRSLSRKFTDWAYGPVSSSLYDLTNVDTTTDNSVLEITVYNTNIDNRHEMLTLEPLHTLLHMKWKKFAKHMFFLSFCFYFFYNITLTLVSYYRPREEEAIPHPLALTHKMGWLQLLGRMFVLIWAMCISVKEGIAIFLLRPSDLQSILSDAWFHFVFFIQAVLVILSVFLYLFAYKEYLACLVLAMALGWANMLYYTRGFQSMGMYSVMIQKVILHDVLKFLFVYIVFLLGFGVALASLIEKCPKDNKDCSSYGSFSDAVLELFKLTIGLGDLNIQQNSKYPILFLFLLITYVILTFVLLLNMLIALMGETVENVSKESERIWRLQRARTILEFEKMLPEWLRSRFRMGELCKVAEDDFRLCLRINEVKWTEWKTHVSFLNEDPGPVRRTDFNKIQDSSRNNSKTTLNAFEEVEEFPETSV
Procedure, shortened: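 Calcium flux read over a 10 min run: compound added at 10 s to Calcium-4-loaded human TRPV3-HEK293 cells, agonist 2-APB (80 μM, its EC80) after 3 min. IC50 derived from peak-minus-baseline signal as percentage of uninhibited 2-APB response, typically averaged over at least two runs.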

RAT MICROSOMAL STABILITY (% REMAINING AFTER 30 MINUTES) [1] | HUMAN MICROSOMAL STABILITY (% REMAINING AFTER 30 MINUTES) [3] | IC50 (human TRPV3) | Structure (SMILES) | EC50 (TRPV3) | inhibition in vivo at 100 mg/kg [2]
>85% | 73% | 6.01 µM | OC1CC(c2ccc(C(F)(F)F)cc2)(C(O)c2ccccn2)C1 [Example 201, trans-3-[(S)-hydroxy(pyridin-2-yl)methyl]-3-[4-(trifluoromethyl)phenyl]-cyclobutanol] |  | 64%
67% | 80% | 1.95 µM | CC1(O)CC(c2ccc(C(F)(F)F)cc2)(C(O)c2ccccn2)C1 (single isomer, unassigned) [Example 232] |  | 65%
57% | 48% | 0.63 µM | C[C@]1(O)C[C@@](c2cccc(OC(F)(F)F)c2)([C@H](O)c2ccccn2)C1 [Example 262, cis-3-[(S)-hydroxy(pyridin-2-yl)methyl]-1-methyl-3-[3-(trifluoromethoxy)-phenyl]cyclobutanol] |  | 45%

Further lines, the molecule ahead of its results:

Structure (SMILES) | RAT MICROSOMAL STABILITY (% REMAINING AFTER 30 MINUTES) [1] | HUMAN MICROSOMAL STABILITY (% REMAINING AFTER 30 MINUTES) [3] | IC50 (human TRPV3) | EC50 (TRPV3) | inhibition in vivo at 100 mg/kg [2]
NCCOB(c1ccccc1)c1ccccc1 [Example 2-APB, 2-aminoethoxydiphenylborate] |  |  |  | ~40 µM | 
c1ccc(B(OB(c2ccccc2)c2ccccc2)c2ccccc2)cc1 [DPBA, diphenylboronic anhydride] |  |  |  | ~40 µM | 
